{"source": "patent US20220364056A1", "about": "“SHORT-CHAIN FATTY ACID PENTANOATE AS ENHANCER FOR CELLULAR THERAPY AND ANTI-TUMOR THERAPY” (PHILIPPS-UNIVERSITÄT MARBURG, priority 2019, published 2022)", "key": {"[1]": {"system": "CTLs", "test": "co-transfer of pentanoate-treated and control CTLs into Rag1-deficient mice", "format": "in vivo", "source_text": "To investigate the capacity of SCFAs on survival and persistence of CD8^+ T cells, we mixed pentanoate-treated CTLs (CD45.2^+) with control CTLs (CD45.1^+) at 1:1 ratio and co-transferred them into Rag1-deficient mice. To better mimic the in vivo tumor microenvironment, we also adoptively co-transferred Tregs (CD45.2^+ from FIR×tiger reporter mice) that are frequently found in solid tumors. In addition, Foxp3^−CD4^+ T cells were co-transferred as the cellular source of IL-2 (FIG. 9, A and B). […] The capacity of CFSE to label proliferative cells was used for in vivo monitoring of CD8^+ T cell proliferation in Rag1-deficient mice after pretreatment with pentanoate. […] Given the importance of CD25 in supporting an effective IL-2R signalling, as well as the proliferation and survival of lymphocytes, we next asked whether pentanoate is capable of modulating CD25 expression in CTLs.\n(A) experimental setup for investigating CTL persistence in vivo is shown. (B-D) The frequency (B, C) and total cell numbers (D) of transferred T cells (WT CD45.1^+ CTLs, WT CD45.2^+ pentanoate-treated CTLs and Foxp3^+CD45.2^+ Tregs from FIR×tiger mice) in Rag1-deficient mice on days 15 after the adoptive transfer are shown. The co-transferred Foxp3^−CD4^+ cells were excluded from the gate (B, C). In D, n=_3 mice/group/experiment, data from 2 pooled independent experiments are shown. […] (G and H) Frequencies and cell numbers of CD25^+ CD8^+ T cells were analysed by flow cytometry on day 15 after transfer of control CTLs (CD45.1^+) and pentanoate-treated CTLs (CD45.2^+) into Rag1-deficient mice (n=3 mice/group/experiment, data pooled from 2 independent experiments). […] The phosphorylated (p)-STAT5 levels were analysed by flow cytometry (n=5, performed in 3 independent experiments). (J) The secretion of IL-2 in pentanoate-treated CTLs cultured for indicated time points was measured by ELISA (n=4, pooled from 2 independent experiments)."}, "[2]": {"system": "Tc9 and Tc17 cells", "test": "CD8+ T cells polarized under Tc17- or Tc9-inducing conditions", "format": "cell-based, murine", "settings": "3 days", "protocol": "(A and B) CD8^+ T cells isolated from spleens and LNs were polarized under Tc17-inducing conditions and treated with pentanoate for 3 days. Representative contour plots (A) and bar graphs (B) indicate the frequency of IL-17^+ and IFN-γ+ cells. Three similar experiments were performed. (C and D) CD8^+ T cells isolated from spleens and LNs were polarized under Tc9-inducing conditions and treated with pentanoate for 3 days. Representative contour plots (C) and bar graphs (D) are showing the frequency of IL-9^+ and IFN-γ+ cells. Three similar experiments were performed. (E and F) The expression of granzyme B, IFN-γ and Eomes in pentanoate-treated human CTLs was analysed by flow cytometry. Five independent experiments were performed (E). For Eomes, mean fluorescence intensity (MFI) values are shown (F, n=3)."}, "[3]": {"system": "human CAR T cells", "test": "human ROR1-specific CAR T cells pretreated, then co-cultured with ROR1-expressing K562 cells", "format": "cell-based", "source_text": "We next investigated the impact of SCFAs on human CD8^+ T lymphocytes and CAR T cells.\n(A) CD8^+ T cells isolated from peripheral blood of healthy donors were differentiated into CTLs in presence or absence of indicated HDACi. Representative contour plots and dot plots indicate the frequency of TNF-α+ and IFN-γ^+ cells. Data points in the graphs represent individual donors (n=4, performed in 4 independent experiments) (B-G) Phenotyping of pentanoate-treated ROR1-specific CD8^+ CAR T cells (CARROR1 T cells). (B) Experimental setup for the functional analysis is shown. (C) The cytokine secretion (IFN-γ and TNF-α) was analysed in supernatants of pentanoate-treated CARROR1 T cells by ELISA. (D) The surface expression of CD25 was measured by flow cytometry. (E) The secretion of IL-2 was detected in supernatants of CARROR1 T cells by ELISA. (F) Proliferation of CARROR1 T cells was determined by CFSE labelling. CARROR1 T cells pre-treated with pentanoate were stained with CFSE and subsequently co-cultured with […] cells in the absence of pentanoate. CD8^+ T cells without the CAR construct were used as mock control cells. (G) The cytolytic activity of CARROR1 T cells was examined by analysis of specific lysis following encounter with luciferase-expressing […] cells. The percentage of lysed target cells was determined in 1 hour intervals (effector-to-target cell (E:T) ratio=2.5:1). Data points shown in the graphs (C-G) represent CARROR1 T cells derived from three different donors. Following pentanoate pre-treatment, the stimulation was mediated by co-culture of CD8^+ CARROR1 T cells with ROR1-expressing K652 ([…]) cells in the absence of pentanoate."}, "[4]": {"system": "histones H3 and H4", "test": "Western blot of H3Ac and H4Ac in CD8+ T cells", "format": "cell-based, murine", "settings": "SCFAs for 3 days", "protocol": "Representative histogram plots (A) and bar graphs (B) are showing the frequency of Annexin V^+ cells. Three similar experiments were performed. (C) Representative effector molecule staining of CD8^+ T cells polarized under suboptimal CTL-inducing conditions, treated with pentanoate or TSA (10 nM Sigma-Aldrich) in presence of 2-DG (1 mM, Sigma-Aldrich) or rapamycin (100 nM, Sigma-Aldrich) for 3 days. Three independent experiments were performed. (D) Western blot analysis of H3Ac and H4Ac in CD8^+ T cells treated with SCFAs for 3 days. (E) Pan-H4Ac ChIP qPCR analysis for Tbx21 promoter accessibility in pentanoate-treated CTLs. Data are from pooled chromatin of three mice. (F and G) CD8^+ T cells isolated from WT and Tbx21^−/− mice were polarized under suboptimal CTL-inducing conditions in presence of increasing pentanoate concentrations. Representative contour plots (F) and bar graphs (G) show the frequency of IFN-γ+ and IL-17A^+ cells. Two similar experiments were performed."}}, "data": [{"smiles": "CCCCC(=O)O", "note": "[pentanoate]", "values": [{"measurement": "frequencies and numbers of CD25+CD8+ T cells in iLN, mLN and spleen", "setting": "[1]; day 15 after transfer, vs control CTLs", "value": "increased frequencies and numbers"}, {"measurement": "in vivo proliferation of CFSE labelled CD8+ T cells", "setting": "[1]; days 4 after transfer, vs control CTLs", "value": "stronger proliferative ability"}, {"measurement": "cell number and frequency of transferred CD8+ T lymphocytes", "setting": "[1]; days 15 after transfer, without cognate antigen", "value": "high cell number and frequency"}, {"measurement": "phenotype of Tc9 and Tc17 cells", "setting": "[2]", "value": "phenotypical switch towards IFN-γ-producing CTLs"}, {"measurement": "proliferation of CAR T cells", "setting": "[3]; CFSE labelling, vs control CAR T cells", "value": "proliferated stronger"}, {"measurement": "expression of CD25", "setting": "[3]; pretreated 4 days", "value": "upregulated"}, {"measurement": "production of IFN-γ and TNF-α", "setting": "[3]; pretreated 4 days, ELISA", "value": "elevated the production"}, {"measurement": "secretion of IL-2", "setting": "[3]; pretreated 4 days, ELISA", "value": "upregulated"}, {"measurement": "cytolytic activity", "setting": "[3]; specific lysis, E:T ratio 2.5:1", "value": "superior cytolytic activity"}, {"measurement": "acetylation of histones H3 and H4", "setting": "[4]", "value": "increased acetylation"}]}]}
